{
  "source": "patent US5629007A",
  "about": "“Method of preventing prostatic cancer development” (priority 1995, dated 1997)",
  "biological_target": "T1, Human Type I Steroid 5α-Reductase (Homo sapiens, UniProt P18405)",
  "T1 construct": "Scalp punch biopsies from graft recipient sites were obtained; from tissue; host or cells: human scalp punch biopsies (hair transplant graft recipient sites), homogenate, resuspended 100,000×g pellet",
  "T1 sequence (P18405 1-259)": "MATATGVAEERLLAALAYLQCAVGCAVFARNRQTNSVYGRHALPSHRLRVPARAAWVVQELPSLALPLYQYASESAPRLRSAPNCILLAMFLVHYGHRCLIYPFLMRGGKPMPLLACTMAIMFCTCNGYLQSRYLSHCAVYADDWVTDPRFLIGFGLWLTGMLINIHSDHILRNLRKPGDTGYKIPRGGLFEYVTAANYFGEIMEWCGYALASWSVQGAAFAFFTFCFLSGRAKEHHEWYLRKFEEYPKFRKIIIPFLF",
  "assay": "Human 5α-Reductase Homogenate Assay (Type I, human scalp): conversion of [3H]-testosterone to 5α-reduced metabolites",
  "format": "biochemical",
  "conditions": "0.3 μM test compound, compared to control reaction mixtures; 50 nM [3H]-testosterone, pH 7.5, 25°, 180 min",
  "source_text": "Methodology of Human Type I Steroid 5α-Reductase Assays\nApproximately 60-75 punches from one surgical procedure were used to generate an enzyme preparation. The subcutaneous tissue was cut away and discarded. The skin was frozen with liquid nitrogen and pulverized to powder. […] The homogenization procedure consisted of four 15 second pulses. Connective tissue was cleared from the probe with forceps between pulses. […] The pellet was resuspended by homogenization with a Dounce homogenizer using the same buffer solution. An aliquot was taken for protein determination by the Lowry method, Lowry, et al., Protein Measurement with the Folin Phenol Reagent, J. Biol. Chem., 193, 265-75 (1951). Aliquots of the enzyme preparation were stored at -80° until use.\nThe reaction was initiated by the addition of 0.5 mg of Type I 5α-reductase. The reaction mixture was incubated at 25° for 180 min, and terminated by the addition of 1 mL ice-cold stopping solution. […] The samples were prepared for high performance liquid chromatography by solid phase extraction. […] The reaction mixtures were then applied to the columns. The columns were subsequently washed with 5 mL of acetone:water (1:4), followed by 0.3 mL of methanol. The samples were then eluted with 3 mL of methanol and collected in 20 mL scintillation vials. […] The column temperature was maintained at 35° and the flow rate was 1.5 mL/min.",
  "data": [
    {"compound": "CN1C(=O)CC[C@]2(C)c3ccc(-c4ccc(-c5ccc(NC(=O)C(C)(C)C)s5)cc4)cc3CC[C@@H]12", "note": "[Example 222, (+)-(4aR)-(10bR)-4-methyl-8-(4-[(2-t-butylcarbonylamino]-5-thienyl]phenyl)-10b-methyl-1,2,3,4,4a,5,6,10b-octahydrobenzo[f]quinolin-3-one]", "values": [
      {"measurement": "percent inhibition of Type I 5AR", "result": 86, "unit": "%"}
    ]},
    {"compound": "(+)-(4aR)-(10bR)-4-methyl-8-benzyloxycarbonyl-10b-methyl-1,2,3,4,4a,5,6,10b-octahydrobenzo[f]quinolin-3-one [Example 144]", "values": [
      {"measurement": "percent inhibition of Type I 5AR", "result": 90, "unit": "%"}
    ]},
    {"compound": "C[C@]12CCC(=O)N[C@@H]1CCc1cc(-c3cnc4ccccc4c3)ccc12", "note": "[Example 196, (+)-(4aR)-(10bR)-8-(3-quinolinyl)-10b-methyl-1,2,3,4,4a,5,6,10b-octahydrobenzo[f]quinolin-3-one]", "values": [
      {"measurement": "percent inhibition of Type I 5AR", "result": 11, "unit": "%"}
    ]},
    {"compound": "CN1C(=O)CC[C@]2(C)c3ccc(C=Cc4ccccc4)cc3CC[C@@H]12", "note": "[Example 285, (4aR)-(10bR)-4,10b-dimethyl-8-(2-phenylethenyl)-1,2,3,4,4a,5,6,10b-octahydrobenzo[f]quinolin-3-one]", "values": [
      {"measurement": "percent inhibition of Type I 5AR", "result": 93, "unit": "%"}
    ]},
    {"compound": "CN1C(=O)CC[C@]2(C)c3ccc(Sc4nc5c(ccc6ccccc65)s4)cc3CC[C@@H]12", "note": "[Example 163, (+)-(4aR)-(10bR)-4-methyl-8-(2-naphtho<1,2-d>-thiazolylthio)-10b-methyl-1,2,3,4,4a,5,6,10b-octahydrobenzo[f]-quinolin-3-one]", "values": [
      {"measurement": "percent inhibition of Type I 5AR", "result": 80, "unit": "%"}
    ]}
  ]
}
